Results reported in patent US20120015907A1, “Furopyridine compounds and uses thereof” (NOVARTIS AG, priority 2010, published 2012).
pIC50: −log10 of the molar value.

The compounds below were run against T1, HCV polymerase (Hepatitis C virus genotype 1b, UniProt Q9WMX2) (assay: biochemical). Conditions: polymerase assay of Biological Example 1; read-out: NS5B polymerase IC50.
T1 construct: (His)6 (C)
Source text: A number of assays have been published to assess these activities. A general method that assesses the gross increase of HCV virus in culture was disclosed in U.S. Pat. No. 5,738,985 to Miles et al. In vitro assays have been reported in Ferrari et al. Jnl. of Vir., 73:1649-1654, 1999; Ishii et al., Hepatology, 29:1227-1235, 1999; Lohmann et al., Jnl of Bio. Chem., 274:10807-10815, 1999; and Yamashita et al., Jnl. of Bio. Chem., 273:15479-15486, 1998.
WO 97/12033, filed on Sep. 27, 1996, by Emory University, listing C. Hagedorn and A. Reinoldus as inventors, which claims priority to U.S. Provisional Patent Application Ser. No. 60/004,383, filed on September 1995, described an HCV polymerase assay that can be used to evaluate the activity of the of the compounds described herein. Another HCV polymerase assay has been reported by Bartholomeusz, et al., Hepatitis C Virus (HCV) RNA polymerase assay using cloned HCV non-structural proteins; Antiviral Therapy 1996:1(Supp 4) 18-24.

Row | pIC50 | SMILES
1 | 7.21 | CNC(=O)c1c(-c2ccc(F)cc2)oc2nc(N(CCCC#N)S(C)(=O)=O)c(I)cc12 [Example 18.2, 6-(N-(3-cyanopropyl)methylsulfonamido)-2-(4-fluorophenyl)-5-iodo-N-methylfuro[2,3-b]pyridine-3-carboxamide]
2 | 6.93 | CNC(=O)c1c(-c2ccc(C)cc2)oc2nc(N(C)S(C)(=O)=O)c(CC(O)CO)cc12 (stereo not drawn) [Example 9.1, 5-(2,3-dihydroxypropyl)-N-methyl-6-(N-methylmethylsulfonamido)-2-p-tolylfuro[2,3-b]pyridine-3-carboxamide]
3 | 8.70 | CCc1ccc(-c2oc3nc(N(CCCC4(C(=O)O)CC4)S(C)(=O)=O)c(C4CC4)cc3c2C(=O)NC)cc1 [Example 29.9993, 1-(3-(N-(5-cyclopropyl-2-(4-ethylphenyl)-3-(methylcarbamoyl)furo[2,3-b]pyridin-6-yl)methylsulfonamido)propyl) cyclopropanecarboxylic acid]
4 | 6.56 | CNC(=O)c1c(-c2ccc(F)cc2)oc2nc(N(C)S(C)(=O)=O)c(/C=C/C#N)cc12 [Example 13, (E)-5-(2-cyanovinyl)-2-(4-fluorophenyl)-N-methyl-6-(N-methylmethylsulfonamido)furo[2,3-b]pyridine-3-carboxamide]
5 | 7.46 | CCc1cc2c(C(=O)NC)c(-c3ccc(F)cc3)oc2nc1N(CCCCS(=O)(=O)C(F)(F)F)S(C)(=O)=O [Example 23.97, 5-ethyl-2-(4-fiuorophenyl)-N-methyl-6-(N-(4-(trifluoromethylsulfonyl)butyl)methylsulfonamido) furo[2,3-b]pyridine-3-carboxamide]
6 | 9.00 | CCc1ccc(-c2oc3nc(N(CCCC(C)(C)C(=O)O)S(C)(=O)=O)c(C4CC4)cc3c2C(=O)NC)cc1 [Example 29, 5-{[5-Cyclopropyl-2-(4-ethyl-phenyl)-3-methylcarbamoyl-furo[2,3-b]pyridin-6-yl]-methanesulfonyl-amino}-2,2-dimethyl-pentanoic acid]
7 | 6.92 | CCc1cc2c(C(=O)NC)c(-c3ccc(F)cc3)oc2nc1N(CCOc1ccccc1C#N)S(C)(=O)=O [Example 21.95, 6-(N-(2-(2-cyanophenoxy)ethyl)methylsulfonamido)-5-ethyl-2-(4-fluorophenyl)-N-methylfuro[2,3-b]pyridine-3-carboxamide]
8 | 6.08 | CNC(=O)c1c(-c2ccc(F)cc2)oc2nc(N(C)S(C)(=O)=O)c(C(C)O)cc12 (stereo not drawn) [Example 11, 2-(4-fluorophenyl)-5-(1-hydroxyethyl)-N-methyl-6-(N-methylmethylsulfonamido)furo[2,3-b]pyridine-3-carboxamide]
9 | 8.52 | CCc1ccc(-c2oc3nc(N(CCCC[C@@H](COC)C(=O)O)S(C)(=O)=O)c(C4CC4)cc3c2C(=O)NC)cc1 [Example 47.4, (S)-6-(N-(5-Cyclopropyl-2-(4-ethylphenyl)-3-(methylcarbamoyl)furo[2,3-b]pyridin-6-yl)methylsulfonamido)-2-(methoxymethyl)hexanoic acid]
10 | 7.37 | CNC(=O)c1c(-c2ccc(F)cc2)oc2nc(N(C)S(C)(=O)=O)c(C(C)C(F)(F)F)cc12 (stereo not drawn) [Example 6.1, 2-(4-fluorophenyl)-N-methyl-6-(N-methylmethylsulfonamido)-5-(1,1,1-trifluoropropan-2-yl)furo[2,3-b]pyridine-3-carboxamide]
11 | 8.52 | CNC(=O)c1c(-c2ccc(C)cc2)oc2nc(N(CCCC(CC(=O)O)OC)S(C)(=O)=O)c(C3CC3)cc12 (stereo not drawn) [Example 29.999994, 6-(N-(5-cyclopropyl-3-(methylcarbamoyl)-2-p-tolylfuro[2,3-b]pyridin-6-yl)methylsulfonamido)-3-methoxyhexanoic acid]
12 | 7.34 | CCc1cc2c(C(=O)NC)c(-c3ccc(F)cc3)oc2nc1N(CCCCC(C)(C)O)S(C)(=O)=O [Example 22.97, 5-ethyl-2-(4-fluorophenyl)-6-(N-(5-hydroxy-5-methylhexyl)methylsulfonamido)-N-methylfuro[2,3-b]pyridine-3-carboxamide]
13 | 8.52 | CNC(=O)c1c(-c2ccc(F)cc2)oc2nc(N(CCC3CCS(=O)(=O)C3)S(C)(=O)=O)c(C3CC3)cc12 (stereo not drawn) [Example 25.91, 5-Cyclopropyl-6-{[2-(1,1-dioxo-tetrahydro-thiophen-3-yl)-ethyl]-methanesulfonyl-amino}-2-(4-fluoro-phenyl)-furo[2,3-b]pyridine-3-carboxylic acid methylamide]
14 | 7.10 | CCc1cc2c(C(=O)NC)c(-c3ccc(F)cc3)oc2nc1N(CCC[S+](C)[O-])S(C)(=O)=O (stereo not drawn) [Example 23.999, 5-ethyl-2-(4-fluorophenyl)-N-methyl-6-(N-(3-(methylsulfinyl)propyl)methylsulfonamido)furo[2,3-b]pyridine-3-carboxamide]
15 | 8.70 | CCc1ccc(-c2oc3nc(N(CCCC(C)(CCOC)C(=O)O)S(C)(=O)=O)c(C4CC4)cc3c2C(=O)NC)cc1 (stereo not drawn) [Example 42, 5-(N-(5-Cyclopropyl-2-(4-ethylphenyl)-3-(methylcarbamoyl)furo[2,3-b]pyridin-6-yl)methylsulfonamido)-2-(2-methoxyethyl)-2-methylpentanoic acid]
16 | 6.73 | CCc1cc2c(C(=O)NC)c(-c3ccc(F)cc3)oc2nc1N(CCCN1CCOCC1)S(C)(=O)=O [Example 21.93, 5-ethyl-2-(4-fluorophenyl)-N-methyl-6-(N-(3-morpholinopropyl)methylsulfonamido)furo[2,3-b]pyridine-3-carboxamide]
17 | 8.52 | CNC(=O)c1c(-c2ccc(C)cc2)oc2nc(N(CCC[C@@H](C)C(=O)O)S(C)(=O)=O)c(C3CC3)cc12 [Example 47.3, (R)-5-(N-(5-cyclopropyl-3-(methylcarbamoyl)-2-p-tolylfuro[2,3-b]pyridin-6-yl)methylsulfonamido)-2-methylpentanoic acid]
18 | 6.72 | CCc1cc2c(C(=O)NC)c(-c3ccc(F)cc3)oc2nc1N(CCCS(=O)(=O)C(F)(F)F)S(C)(=O)=O [Example 23.96, 5-ethyl-2-(4-fluorophenyl)-N-methyl-6-(N-(3-(trifluoromethylsulfonyl)propyl)methylsulfonamido) furo[2,3-b]pyridine-3-carboxamide]
19 | 7.68 | CNC(=O)c1c(-c2ccc(C)cc2)oc2nc(N(CCCCC(=O)NCCCC(=O)O)S(C)(=O)=O)c(C3CC3)cc12 [Example 29.99999, 4-(5-(N-(5-cyclopropyl-3-(methylcarbamoyl)-2-p-tolylfuro[2,3-b]pyridin-6-yl)methylsulfonamido)pentanamido)butanoic acid]
20 | 7.70 | CNC(=O)c1c(-c2ccc(C)cc2)oc2nc(N(CCC(CC(=O)O)N(C)C)S(C)(=O)=O)c(C3CC3)cc12 (stereo not drawn) [Example 44, 5-[(5-Cyclopropyl-3-methylcarbamoyl-2-p-tolyl-furo[2,3-b]pyridin-6-yl)-methanesulfonyl-amino]-3-dimethylamino-pentanoic acid]
21 | 8.30 | CNC(=O)c1c(-c2ccc(C)cc2)oc2nc(N(CCOCCCC(=O)O)S(C)(=O)=O)c(C3CC3)cc12 [Example 23.999998, 4-(2-(N-(5-cyclopropyl-3-(methylcarbamoyl)-2-p-tolylfuro[2,3-b]pyridin-6-yl)methylsulfonamido)ethoxy)butanoic acid]
22 | 8.70 | CNC(=O)c1c(-c2ccc(C)cc2)oc2nc(N(CCCC3(C(=O)O)CCN(C(C)=O)CC3)S(C)(=O)=O)c(C3CC3)cc12 [Example 29.99992, 1-acetyl-4-(3-(N-(5-cyclopropyl-3-(methylcarbamoyl)-2-p-tolylfuro[2,3-b]pyridin-6-yl)methylsulfonamido)propyl) piperidine-4-carboxylic acid]
23 | 7.85 | CNC(=O)c1c(-c2ccc(C)cc2)oc2nc(N(CCCN)S(C)(=O)=O)c(C3CC3)cc12 [Example 23.999995, 6-(N-(3-aminopropyl)methylsulfonamido)-5-cyclopropyl-N-methyl-2-p-tolylfuro[2,3-b]pyridine-3-carboxamide]
24 | 8.70 | CNC(=O)c1c(-c2ccc(C)cc2)oc2nc(N(CCCC(CC#N)C(=O)O)S(C)(=O)=O)c(C3CC3)cc12 (stereo not drawn) [Example 29.9999, 2-(cyanomethyl)-5-(N-(5-cyclopropyl-3-(methylcarbamoyl)-2-p-tolylfuro[2,3-b]pyridin-6-yl)methylsulfonamido) pentanoic acid]
25 | 7.05 | CCc1cc2c(C(=O)NC)c(-c3ccc(F)cc3)oc2nc1N(CCN1CCSCC1)S(C)(=O)=O [Example 22.3, 5-ethyl-2-(4-fluorophenyl)-N-methyl-6-(N-(2-thiomorpholinoethyl)methylsulfonamido)furo[2,3-b]pyridine-3-carboxamide]
26 | 7.47 | CCOC(=O)CCCCc1cc2c(C(=O)NC)c(-c3ccc(F)cc3)oc2nc1N(C)S(C)(=O)=O [Example 3, Ethyl 5-(2-(4-fluorophenyl)-3-(methylcarbamoyl)-6-(N-methylmethylsulfonamido)furo[2,3-b]pyridin-5-yl)pentanoate]

Row | SMILES | pIC50
27 | CNC(=O)c1c(-c2ccc(C)cc2)oc2nc(N(CCCC3(C(=O)O)CCN(C(=O)OC(C)(C)C)CC3)S(C)(=O)=O)c(C3CC3)cc12 [Example 29.9996, 1-(tert-butoxycarbonyl)-4-(3-(N-(5-cyclopropyl-3-(methylcarbamoyl)-2-p-tolylfuro[2,3-b]pyridin-6-yl)methylsulfonamido)propyl) piperidine-4-carboxylic acid] | 6.93
